Assay results taken from patent publication US8486899B2, “Antioxidant” (Morinaga Milk Industry Co., Ltd., priority 2008, dated 2013).

Columns and labels:
ApoE gene-deficient mice [1] = format: in vivo; conditions: for Amount of lipid peroxide in blood (MDA concentration (μM)): ApoE gene-deficient mice on high-cholesterol diet, oral, once a day, 30 μg per day, serum 14 days after start of administration, TBARS assay kit; for Effect of inhibiting formation of a lipid peroxide in blood (in words, versus negative sample): ApoE gene-deficient mice, oral 30 μg per day, 14 days after start of administration
Source text: The actions of inhibiting formation of a lipid peroxide of various test samples including the antioxidant of the present invention can be evaluated by using, as an index, the amount of a thiobarbituric acid (TBA) reactive substance (TBARS), for example. Specifically, it may be defined that the larger the amount of the TBARS, the larger the amount of a lipid peroxide formed.
Examples of the TBARS include malondialdehyde (MDA) which reacts with TBA under high-temperature and acidic conditions and is a natural by-product of a lipid peroxidation. An MDA-TBA adduct can be detected by measurement of an absorbance at 530 to 540 nm to perform colorimetric measurement of MDA.
Also, the action of inhibiting formation of a lipid peroxide of a test sample can be evaluated using ApoE gene-deficient mice, which are often used as model animals which develop arteriosclerosis by hypercholesterolemia (hyper-LDL-cholesterolemia) (for example, see Reference Document 1: “Saibokogaku (Cell Engineering),” Extra Issue, “Medical Experiment Manual” series, Strategy for Study of Arteriosclerosis+Hyperlipidemia, Shujunsha Co., 1st edition, 1st impression, published on Apr. 1, 1996, pp. 441-443).
Further, in the model mice, the lipid peroxide level is higher than that of normal mice, and formation of atherosclerotic lesions (plagues) in the artery is observed with time. Therefore, the action of inhibiting formation of a lipid peroxide of a test sample can be evaluated by administering the test sample to the model mice and measuring a lipid peroxide in blood of the model mice.
Model animals which develop arteriosclerosis, ApoE gene-deficient mice, were used to examine the action of inhibiting formation of a lipid peroxide of 3-O-β-D-glucopyranosyl-4-methylergost-7-en-3-ol.
3-O-β-D-glucopyranosyl-4-methylergost-7-en-3-ol manufactured in Production Example 1 above was used as a test sample, and Mevalotin (DAIICHI SANKYO COMPANY, LIMITED), which is an HMG-CoA reductase inhibitor, was used as a control sample.
Those samples were separately dissolved in physiological saline so that the concentration of each compound was 30 μg/ml and were used for a test. Note that physiological saline was used as a negative sample.
(§1) Six-week-old male ApoE gene-deficient mice (purchased from Japan SLC, Inc.) were preliminarily fed with a high-cholesterol diet (manufactured by Research Diets, Inc.) for 2 weeks and divided into groups each of 15 mice.
To mice of each group, the solution including the test sample, control sample, or negative sample was separately administered orally once a day for 3 consecutive days using medical probes in an amount of 1 ml per 25 g of mouse body weight. […] Then, the amount of TBARS was measured using OxiSelect TBARS Assay Kit (manufactured by […]). […]

ApoE gene-deficient mice [2] = experiment: Number of atherosclerotic lesions (plaques) in thoracic aorta of ApoE gene-deficient mice; format: in vivo; conditions: oral once a day for 39 consecutive days; for Number of plaques formed in thoracic aorta: ApoE gene-deficient mice on high-cholesterol diet, 1 ml of 30 μg/ml per 25 g body weight, Oil red staining 40 days after start; for Effect on plaque formation (in words, versus negative sample): ApoE gene-deficient mice
Description: In addition, it is generally known that a primary lesion of arteriosclerosis is caused by oxidized LDL. Therefore, it is also possible to evaluate the action of reducing a risk of arteriosclerosis through inhibiting formation of a lipid peroxide of the test sample by counting the number of atherosclerotic lesions (plaques) in the artery of each model mouse treated with the test sample.
In Example 2, 3-O-β-D-glucopyranosyl-4-methylergost-7-en-3-ol was evaluated on the effect of reducing a risk of arteriosclerosis through the effect of inhibiting a lipid peroxide by counting the number of atherosclerotic lesions (plaques) in the artery using known arteriosclerosis model animals, ApoE gene-deficient mice.
A test sample, a control sample, and a negative sample were prepared in the same way as in Example 1 above and were each used for a test.
as §1
Each of the sample solutions including the test sample, control sample, and negative sample was separately administered orally once a day for 39 consecutive days using medical probes in an amount of 1 ml per 25 g of mouse body weight. Forty days after the start of administration, the thoracic aorta part was fixed with formalin and stained with Oil red, and the number of plaques was counted.
The test results of this example are shown in Tale 2.

In the case of CC[C@H](C)C(=O)O[C@H]1C[C@H](O)C=C2C=C[C@H](C)[C@H](CC[C@@H](O)C[C@@H](O)CC(=O)[O-])[C@H]21.[Na+] [Control sample, reference compound], the “Amount of lipid peroxide in blood (MDA concentration (μM))” value (ApoE gene-deficient mice [1]) is reported as 0.93 ± 0.05 µM, the “Effect of inhibiting formation of a lipid peroxide in blood (in words, versus negative sample)” value (ApoE gene-deficient mice [1]) is reported as “a significant decrease in amount of a lipid peroxide in blood was not observed” and the “Number of plaques formed in thoracic aorta” value (from here on “Number of plaques formed”) (ApoE gene-deficient mice [2]) is reported as 10.6 ± 3.2. The “Effect on plaque formation (in words, versus negative sample)” value (ApoE gene-deficient mice [2]) was “no significant difference although plaque formation was found to decrease”.

With CC1C(O[C@@H]2O[C@H](CO)[C@@H](O)[C@H](O)[C@H]2O)CC[C@@]2(C)C1CC=C1[C@@H]3CC[C@H]([C@H](C)CC[C@H](C)C(C)C)[C@@]3(C)CC[C@@H]12 (stereo partly drawn) [Test sample, 3-O-β-D-glucopyranosyl-4-methylergost-7-en-3-ol] the “Amount of lipid peroxide in blood (MDA concentration (μM))” value (ApoE gene-deficient mice [1]) was 0.51 ± 0.22 µM, the “Effect of inhibiting formation of a lipid peroxide in blood (in words, versus negative sample)” value (ApoE gene-deficient mice [1]) was “the effect of inhibiting formation of a lipid peroxide in blood was clearly confirmed” and the “Number of plaques formed” value (ApoE gene-deficient mice [2]) was 5.8 ± 1.6. The “Number of plaques formed” value (ApoE gene-deficient mice [2]; listed as test sample) was 5.8 and the “Effect on plaque formation (in words, versus negative sample)” value (ApoE gene-deficient mice [2]) was “had an effect of inhibiting plaque formation on the arterial endothelium”.
